Row | Compound | melting point
1 | Nc1c(OC2C=CC(N3CCCCCC3=O)=CC2)cc(O)c2c1C(=O)c1ccccc1C2=O (centres undefined) | 164 °C
2 | CC(COc1ccc(C(C)(C)C)cc1)OS(=O)OCCCl (centres undefined) | -31.7 °C
3 | COc1ccc(S(=O)(=O)Cl)cc1OC | 68 °C
4 | OCC(F)(F)C(F)F | -15 °C
5 | O=c1occo1 | 19 to 22 °C
6 | C[C@]12CCC(=O)C=C1CC[C@@H]1[C@@H]2CC[C@@]2(C)[C@H]1CC[C@]2(O)C#Cc1ccccc1 | 185 to 187 °C
7 | C=CC(=O)NCO | 74.5 °C
8 | CC(=O)OC1COC(C#N)C(OC(C)=O)C1OC(C)=O (centres undefined) | 132 to 135 °C
9 | NNC(=O)C(=O)NN | 239 to 243 °C
10 | CCCCNC(=O)NCCCC | 74 to 75 °C
11 | CCOC(=O)Oc1c(OC)cc(C(=O)OC2CC3CN4CCc5c([nH]c6cc(OC)ccc56)C4CC3C(C(=O)OC)C2OC)cc1OC (centres undefined) | 177 °C
12 | CCC(C)(C)N | -105 °C
13 | CC(C)NC(=O)C(C)C | 103 to 104 °C
14 | COc1ccc(C2C3=C(CC(C)(C)CC3=O)Nc3ccc4ccccc4c32)cc1 (centres undefined) | 288 °C
15 | CN(C)c1nc(N(C)C)nc(N(C)C)n1 | 173 °C
16 | CCOC(=O)CCC(N[P+]([O-])(OC)C(C)NC(=O)CCCCN1C(=O)c2ccccc2C1=O)C(=O)OCC (centres undefined) | 81 °C
17 | CCCCCCCCCCCCCCCCCCN=C=S | 29 to 33 °C
18 | Cc1nc(Cl)c2c3c(sc2n1)CCCC3 | 94 to 95 °C
19 | CCOC(=O)c1c(N)sc2c1CCCCC2 | 89 to 90 °C
20 | BrCc1ccc2nsnc2c1 | 91 °C
21 | FC(F)(F)c1nnc(S)n1N=Cc1ccc(Cl)cc1 | 255 °C
22 | CCC(C)(C)c1ccc(O)cc1 | 95 °C
23 | N#Cc1c(F)cccc1Cl | 58 °C

Row | Compound | melting point
24 | Nc1ccc(Cl)cc1N | 76 °C
25 | O=C1CCc2cc(Br)ccc2C1 | 70 to 76 °C
26 | Cc1ccc(Cc2c(N)nn3c(C)cc(C)nc23)cc1 | 178 to 179 °C
27 | O=C(O)C(Br)CBr (centres undefined) | 66.5 °C
28 | COc1ccc(C=Nn2c(S)nnc2CCn2c(C)nc3ccccc32)cc1 | 262 °C
29 | CCC1C(=CC(=O)CI)N(C)C(C)(C)N1O (centres undefined) | 126 to 127 °C
30 | Cn1cnc([N+](=O)[O-])c1Cl | 146 to 150 °C
31 | CCCCCCC(O)CCCCC (centres undefined) | 30 °C
32 | Clc1cccc(C(Cl)(Cl)Cl)n1 | 63 °C
33 | C[C@]12CCC(O)CC1=CC[C@@H]1[C@@H]2CC[C@]2(C)C(O)CC[C@@]12C (some centres undefined) | 182 to 184 °C
34 | CN(C)c1ccc(C=C2C=C(c3ccccc3)OC(c3ccccc3)=C2)cc1 | 181 °C
35 | O=C1NN=C(C(F)(F)F)C1=NNc1cc(Cl)ccc1Cl | 214 °C
36 | NNc1cc(Cl)cc(Cl)c1 | 115 °C
37 | CCCCCCCCCCCCCCC=O | 24.5 °C
38 | FC(F)(F)c1ccc(N=C=S)cc1 | 41 to 43 °C
39 | CCOC(=O)CCN(Cc1ccccc1)SN(C)C(=O)ON=C(C)SC | 47 °C
40 | CCOC(=O)C(Br)C(=O)OCC | -54 °C
41 | CCOC(=O)CCC(C)C1CCC2C3C(=O)CC4CC(=O)CCC4(C)C3CC(=O)C12C (centres undefined) | 222 °C
42 | O=C(/C(=N/Nc1ccc(Cl)cc1Cl)S(=O)(=O)c1ccccc1)c1cccc2ccccc12 | 162 °C
43 | O=C1C(=O)C(Br)=C(Br)C(Br)=C1Br | 143 to 148 °C
44 | CCCC(=O)Cl | -89 °C
45 | C[C@@]12CC[C@@H]3[C@H](CC[C@]4(C)C(=O)CC[C@]34C)[C@@]1(C)CCC(=O)C2 | 184 to 186 °C
46 | CC(=O)C=Cc1ccc(Cl)cc1 | 55 °C

Row | Compound | melting point
47 | OCC1OC=CC(O)C1O (centres undefined) | 99 to 103 °C
48 | CNC(=N[N+](=O)[O-])NCc1cnc(Cl)s1 | 177 °C
49 | NC(=O)CF | 108 °C
50 | COc1cccc(OC)c1N | 77 °C
51 | Brc1c2ccccc2c(Br)c2ccccc12 | 226 °C
52 | COc1cc(OC)c(OC)cc1/C=C/C(=O)O | 164 to 167 °C
53 | CC(=O)C(C)(CCC(=O)O)CCC(=O)O | 123 °C
54 | CN(C)CCc1ccc(O)cc1 | 118 °C
55 | Cc1c(F)c(F)c(CBr)c(F)c1F | 42 °C
56 | Cn1c(=O)c(C2=NNC(=O)C2=NNc2c(Br)cc([N+](=O)[O-])cc2[N+](=O)[O-])c(O)c2ccccc21 | 192 °C
57 | Cc1ccc(S(=O)(=O)OCC2CCC(=O)N2)cc1 (centres undefined) | 122 to 129 °C
58 | O=C(O)c1cc(Cl)c(Cl)c(Cl)c1Cl | 194 °C
59 | O=c1n(-c2ccccc2)c(=O)n(-c2ccccc2)c(=O)n1-c1ccccc1 | 285 °C
60 | O=C1CCCc2ccc(Br)cc21 | 78 to 79 °C
61 | CCC(C)c1ccc(O)cc1 (centres undefined) | 61.5 °C
62 | C(=N\c1ccc(-c2ccc(/N=N/c3ccccc3)cc2)cc1)/c1ccccc1 | 226 °C
63 | CCOC(=O)c1[nH]c(C)c(C=O)c1C | 145 to 146 °C
64 | CC(Oc1ccc(Oc2ccc(Cl)cc2Cl)cc1)C(=O)O (centres undefined) | 120 °C
65 | CCC1(C(=O)NC(C)c2ccc(Cl)cc2)C(C)C1(Cl)Cl (centres undefined) | 160 °C
66 | Nc1ncnc2c1ncn2C1OC2COP(=O)(O)OC2C1O (centres undefined) | 260 °C
67 | COCCOCCOCCO | -44 °C

Now from value to compound:

Row | melting point | Compound
68 | 144 to 148 °C | O=C(O)CCNC(=O)OCC1c2ccccc2-c2ccccc21
69 | 145 to 148 °C | O=C(O)C=Cc1cccs1
70 | 234 °C | O=c1[nH]nc2ccccn12
71 | 62 °C | CC(=O)c1ccc(Cl)c(Cl)c1Cl
72 | 64 °C | O=[N+]([O-])c1ccc(OCCBr)cc1
73 | 106 to 108 °C | OCc1ccc2nccn2c1
74 | 199 to 201 °C | Cc1nn(-c2ccccc2)c(C)c1C(=O)O
75 | 186 °C | O=C(O)c1cccc(-c2ccccc2)c1O
76 | 194 °C | O=C(O)c1cccc(Cl)n1
77 | 203 °C | Oc1cc(Br)ccn1
78 | 252 °C | Cc1c(Cl)cc(-c2ccc(=O)[nH]n2)cc1Cl
79 | 213 °C | Cn1c(=O)c(C2=NNC(=O)C2=NNc2ccccc2)c(O)c2ccccc21
80 | 142 to 144 °C | O=C(Cc1ccccc1)c1cc2c(cc1Br)OCCO2
81 | 178 to 181 °C | COc1ccc(C(C=O)C=O)cc1
82 | 80 to 82 °C | N#Cc1ccc(Cn2cccn2)cc1
83 | 92 to 96 °C | C[Si](C)(C)c1ccc([Si](C)(C)C)cc1
84 | 250 to 253 °C | N=C(N)N[C@@H](Cc1ccccc1)C(=O)O
85 | 183 to 185 °C | COc1cc2c(cc1OC)C(c1ccc([N+](=O)[O-])cc1)N(C(C)=O)CC2 (centres undefined)
86 | 94 to 98 °C | Nc1ncccc1OCc1ccccc1
87 | 52 °C | Oc1ccc(Cl)c(F)c1
88 | 150 °C | ON=C(Cc1ccccc1)c1cccc2ccccc12

Row | melting point | Compound
89 | 143 to 145 °C | CC(=O)Nc1ccc(C(C)=O)c(O)c1
90 | 168 to 169 °C | Nc1ccc(C(=O)O)cc1OC(F)(F)F
91 | 116 °C | CCCCC(C(=O)O)C(=O)N(Nc1ccccc1)c1ccccc1 (centres undefined)
92 | 118 °C | CC(=O)Nc1ccc(C)cc1Br
93 | 142 to 144 °C | CCCCOc1cc(C(=O)O)ccc1OC
94 | 137 to 143 °C | O=CC(C=O)c1ccc(Cl)cc1
95 | 38 °C | O=C(Cl)C=Cc1ccccc1Cl
96 | 200 °C | O=C(O)c1ccc(-c2ccco2)nc1
97 | 55 to 56 °C | CC(=O)CCc1ccc(CCC(C)=O)cc1
98 | 116 to 117 °C | CCOC(=O)C(C#N)=Cc1ccc(-c2ccccc2)o1
99 | 103 °C | Cc1c(C(C)C)c(=O)n(-c2ccccc2)n1C
100 | 175 °C | Cc1nc2ccccc2[nH]c(=O)c1=NNc1ccc(Cl)cc1
101 | 89 to 90 °C | O=[N+]([O-])c1cccnc1Oc1ccc(Cl)cc1
102 | 35 to 36 °C | OCc1ccc2occc2c1
103 | 238 to 241 °C | O=C(O)c1cc2cc([N+](=O)[O-])ccc2s1
104 | 195 to 199 °C | O=C(NO)c1ccc(Cl)cc1O
105 | 58 °C | c1ccc(SSc2ccccn2)nc1
106 | 115 °C | Clc1c(Cl)c(Cl)c2c(c1Cl)OC(c1ccccc1)O2
107 | 140 °C | Clc1ccc2cc(Cl)ccc2c1
108 | 113 to 114 °C | CC(C)(C)c1cnc(C(=O)Nc2cccc(Br)c2)cn1
109 | 112 to 114 °C | O=C(O)CS(=O)(=O)c1ccccc1

Row | melting point | Compound
110 | 170 °C | COc1ccc2c(c1)c(CC(=O)O)c(C)n2C(=O)C=Cc1ccccc1
111 | 85 °C | CC(Cc1ccccc1)=NNc1ccccc1
112 | 36 °C | COc1cccc(-c2cccc(OC)c2)c1
113 | 96 to 100 °C | O=C(O)C(c1ccccc1)C1CCCC1 (centres undefined)
114 | 84 to 86 °C | Cn1ccc2cc(C=O)ccc21
115 | 72.5 °C | O=S(=O)(O)c1ccc(-c2ccc(S(=O)(=O)O)cc2)cc1
116 | 81.3 °C | OCc1ccc2ccccc2c1
117 | 153 °C | COc1ccc(NC(=O)c2ccccc2)cc1
118 | 198 °C | O=Cc1ccc(OCC(=O)O)cc1
119 | 72 to 74 °C | O=Cc1ccc(-c2ccccc2OC(F)(F)F)o1
120 | 158 to 160 °C | O=c1c(Cl)c(Cl)cnn1Cc1c(Cl)cccc1Cl
121 | 208 to 209 °C | COC(=O)c1cnc(SCC(=O)NC(=O)Nc2ccc(Cl)cc2)n1C
122 | 145 °C | CC1CCc2cc3c(cc2N1)CCC(C)N3C(=O)c1ccccc1 (centres undefined)
123 | 125 to 126 °C | Nc1cscc1S(=O)(=O)c1ccccc1
124 | 140 to 142 °C | CCCCCCCCOc1ccc(NC(=O)c2ccc(C)cc2)cc1
125 | 249 °C | O=C(O)c1ccnc(C(=O)O)c1
126 | 110 °C | CCOC(=O)c1nc(C(Cl)(Cl)Cl)n(-c2ccc(Cl)cc2Cl)n1
127 | 94.5 °C | CC(C)NCCCC1(C(N)=O)c2ccccc2-c2ccccc21
128 | 68 to 70 °C | Cn1nc(C(F)(F)F)cc1-c1ccc(S(=O)(=O)Cl)s1
129 | 260 °C | O=c1c(C=Cc2nc3ccccc3[nH]2)coc2ccccc12

Reference: a melting point compilation (Tetko et al.)
